Blank lines part the entries; values can stand above or below the compound they belong to. Activity calls are given as the source filed them.
Legend:
Bcl-2-related protein A1 [1] = biological target: T1, Bcl-2-related protein A1 (Mus musculus, UniProt Q07440); test: Bfl-1 inhibitors blocking BH3 peptide binding, confirmation, biochemical, TR-FRET, mouse Bfl-1 (AID 621);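 further: TR-FRET binding of GST-Bfl-1 to FITC-labelled Bid peptide via terbium antibody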
T1 sequence (Q07440 whole entry): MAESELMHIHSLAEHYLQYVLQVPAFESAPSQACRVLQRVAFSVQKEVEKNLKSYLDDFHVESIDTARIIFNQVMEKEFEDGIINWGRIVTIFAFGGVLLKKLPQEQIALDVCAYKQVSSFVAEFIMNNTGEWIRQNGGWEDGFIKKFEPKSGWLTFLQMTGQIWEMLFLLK

[2] = biological target: Glyceraldehyde-3-phosphate dehydrogenase (Homo sapiens, UniProt P04406)
Glyceraldehyde-3-phosphate dehydrogenase, sequence (P04406 whole entry): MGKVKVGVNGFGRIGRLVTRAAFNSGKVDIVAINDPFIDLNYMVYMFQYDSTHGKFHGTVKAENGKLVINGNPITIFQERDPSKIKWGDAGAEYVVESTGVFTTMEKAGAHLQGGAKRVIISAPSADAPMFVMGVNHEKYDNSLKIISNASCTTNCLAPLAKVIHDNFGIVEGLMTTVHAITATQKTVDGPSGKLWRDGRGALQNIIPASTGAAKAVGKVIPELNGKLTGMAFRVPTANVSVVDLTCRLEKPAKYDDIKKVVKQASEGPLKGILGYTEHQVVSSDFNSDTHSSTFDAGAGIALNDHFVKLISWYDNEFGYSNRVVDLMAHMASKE

Bcl-2-related protein A1 [3] = biological target: T1, Bcl-2-related protein A1; test: Bfl-1 binding inhibitors, SAR follow-up, biochemical, fluorescence polarization (AID 1070)
Protein Tat = Protein Tat (Human immunodeficiency virus type 1 group M subtype B (isolate HXB2)(HIV-1), UniProt P04608); type: functional;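 further: tat binding to TAR RNA read out by fluorescence polarization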
Protein Tat, sequence (P04608 whole entry): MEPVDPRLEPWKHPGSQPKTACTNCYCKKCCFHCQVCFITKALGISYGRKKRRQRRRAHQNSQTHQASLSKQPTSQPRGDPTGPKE

cells = settings: A549
[4] = biological target: Aryl hydrocarbon receptor (Homo sapiens, UniProt P35869); test: Luminescence-based cell-based high throughput dose response assay for activators of the Aryl Hydrocarbon Receptor (AHR). [Related pubchem assays: 2796 (Primary screen (AHR activators in singlicate)), 2845 (Confirmation screen (AHR activators in triplicate)), 434939 (Counterscreen (PXR activators in triplicate)), 2804 (Summary (AHR activators))]; type: ADME
Aryl hydrocarbon receptor, sequence (P35869 whole entry): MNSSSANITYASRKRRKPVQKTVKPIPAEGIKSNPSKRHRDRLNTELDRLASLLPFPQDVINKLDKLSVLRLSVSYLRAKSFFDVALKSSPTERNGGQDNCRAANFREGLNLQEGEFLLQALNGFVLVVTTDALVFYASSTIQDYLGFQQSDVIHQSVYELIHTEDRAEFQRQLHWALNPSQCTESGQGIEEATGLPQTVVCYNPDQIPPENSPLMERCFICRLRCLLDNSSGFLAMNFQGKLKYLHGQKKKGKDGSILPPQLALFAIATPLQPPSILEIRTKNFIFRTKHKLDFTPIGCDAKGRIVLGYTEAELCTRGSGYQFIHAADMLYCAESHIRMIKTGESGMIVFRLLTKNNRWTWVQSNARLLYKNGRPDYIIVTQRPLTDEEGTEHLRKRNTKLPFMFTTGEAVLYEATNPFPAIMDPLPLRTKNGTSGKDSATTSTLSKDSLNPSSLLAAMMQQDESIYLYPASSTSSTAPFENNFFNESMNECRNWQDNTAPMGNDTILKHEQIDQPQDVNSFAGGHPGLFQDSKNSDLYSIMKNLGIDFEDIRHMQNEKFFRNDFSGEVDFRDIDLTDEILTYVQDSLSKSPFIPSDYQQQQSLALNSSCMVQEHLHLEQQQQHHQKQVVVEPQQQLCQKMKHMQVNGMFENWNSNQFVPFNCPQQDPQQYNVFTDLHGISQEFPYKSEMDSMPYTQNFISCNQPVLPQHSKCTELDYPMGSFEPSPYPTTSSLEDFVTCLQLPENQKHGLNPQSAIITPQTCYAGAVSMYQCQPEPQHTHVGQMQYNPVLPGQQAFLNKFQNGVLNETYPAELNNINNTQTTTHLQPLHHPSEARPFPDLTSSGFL

[5] = A549 cell cytotoxicity, dose response, cytotoxicity control, plate reader, cherry-pick, antagonist series (AID 743412); type: functional, cell-based
[6] = THP-1 cell cytotoxicity, dose response, cytotoxicity control for Vif-APOBEC3G degradation inhibitor project, THP-1 cells (AID 1117359); type: functional; settings: Human immunodeficiency virus 1, THP-1
[7] = HEK293 cell cytotoxicity, dose response, cytotoxicity control, plate reader, cherry-picked samples (AID 743446); type: functional, cell-based
[8] = MC4R antagonists, dose response, counter-screen for LGR2 antagonist project, cell-based, plate reader, cherry pick (AID 743444); type: functional;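 further: transfected HEK 293 cells stimulated with alpha-MSH peptide; potency of inhibitors of the alpha-MSH evoked signal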
[9] = LGR2 antagonists, dose response, cell-based, HEK293, CRE-luciferase reporter, cherry pick, set 2 (AID 743343); type: functional;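 further: transfected cells were stimulated with diluted bursicon conditioned medium after compound addition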
HT-1080 = test: cytotoxicity in HT1080 fibrosarcoma cells, cell-based, fluorescence readout (AID 620); type: functional; settings: Homo sapiens
[10] = biological target: Luciferin 4-monooxygenase (Photinus pyralis, UniProt P08659); test: Counter Screen for Luciferase-based Assay Positives. [Related pubchem assays: 620, 618, 411 ]
Luciferin 4-monooxygenase, sequence (P08659 whole entry, the tested form may be a part): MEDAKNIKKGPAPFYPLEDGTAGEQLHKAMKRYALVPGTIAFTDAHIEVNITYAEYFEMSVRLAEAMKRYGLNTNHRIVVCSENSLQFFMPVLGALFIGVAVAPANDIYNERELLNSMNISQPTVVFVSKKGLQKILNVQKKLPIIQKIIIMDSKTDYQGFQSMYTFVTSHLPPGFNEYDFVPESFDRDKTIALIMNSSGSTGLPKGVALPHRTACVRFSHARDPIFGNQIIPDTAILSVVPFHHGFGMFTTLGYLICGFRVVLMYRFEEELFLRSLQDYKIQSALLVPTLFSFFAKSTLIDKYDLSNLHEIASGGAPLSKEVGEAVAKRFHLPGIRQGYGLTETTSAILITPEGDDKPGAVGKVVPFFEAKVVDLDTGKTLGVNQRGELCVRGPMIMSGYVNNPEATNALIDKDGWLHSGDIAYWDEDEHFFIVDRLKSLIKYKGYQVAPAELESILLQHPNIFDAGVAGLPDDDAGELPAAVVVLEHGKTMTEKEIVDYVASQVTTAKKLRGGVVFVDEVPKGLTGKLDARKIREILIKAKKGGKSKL

[11] = inhibitors of clade B AD8 Env fusion, dose response, cell-based, cherry-pick (AID 652062); type: functional;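 further: luciferase signal from cell-cell fusion driven by HIV-1 clade B AD8 Env; potency is for inhibitors of fusion seen as a drop in luminescence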
[12] = CEM21 lymphoblast cell cytotoxicity, dose response, cytotoxicity control for viral fusion inhibitor project, CellTiter-Glo luminescence, cherry-picked (AID 652042); type: functional, cell-based;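 further: potency for signal decrease meaning cytotoxicity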
[13] = ZM109 Env clade C HIV-1 fusion inhibitors, dose response, HeLa effector, CEM target cells, luciferase, cherry-pick (AID 652058); type: functional, cell-based
[14] = biological target: T2, COUP transcription factor 2 (Homo sapiens, UniProt P24468); test: Luminescence-based cell-based high throughput dose response assay to identify inhibitors of COUP-TFII (NR2F2).; type: functional;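 further: HEK293 cells transiently cotransfected with COUP-TFII expression vector and reporter; luciferase reporter luminescence driven by COUP-TFII from the pX2-168 reporter plasmid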
T2 sequence (P24468 whole entry): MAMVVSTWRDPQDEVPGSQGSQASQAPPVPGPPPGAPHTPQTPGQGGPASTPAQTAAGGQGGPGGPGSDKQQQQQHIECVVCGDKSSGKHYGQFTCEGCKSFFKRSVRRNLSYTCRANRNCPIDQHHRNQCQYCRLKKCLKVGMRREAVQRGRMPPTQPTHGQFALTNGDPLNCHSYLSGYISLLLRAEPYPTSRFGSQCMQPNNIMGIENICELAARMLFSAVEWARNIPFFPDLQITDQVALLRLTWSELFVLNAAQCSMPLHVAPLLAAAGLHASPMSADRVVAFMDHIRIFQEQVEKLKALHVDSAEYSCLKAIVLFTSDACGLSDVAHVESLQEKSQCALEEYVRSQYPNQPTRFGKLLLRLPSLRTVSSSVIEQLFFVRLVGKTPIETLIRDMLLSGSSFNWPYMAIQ

H9c2 = test: cells; type: functional, cell-based; settings: Rattus norvegicus, H9c2, Myocardium;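 further: confirmatory concentration-response retest of ultra-high-throughput screening hits for modulation of myocardial damage; cell death induced by hydrogen peroxide oxidative stress; compound pretreatment for 60 min then peroxide exposure for 2 h; potency is for protecting the cells against peroxide damage rather than for killing them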

Structure (SMILES): O=C1C(Cl)=C(N2CCN(Cc3ccccc3)CC2)C(=O)N1c1ccc(Cl)c(Cl)c1
IC50 (Bcl-2-related protein A1 [1]): 1.64 µM (active) | IC50 [2]: > 100 µM (not active) | IC50 (Bcl-2-related protein A1 [3]): 1.62 µM (active)

Structure (SMILES): COc1ccc(C2CC(c3ccccc3)=NN2c2ccc(C(N)=O)cc2)cc1 (stereo not drawn)
AC50 (cells): 39.1 µM (active)

Structure (SMILES): CC(=O)c1ccc(NC(=O)c2cc(Cl)nc3ccccc23)cc1
EC50 [4]: 1.66 µM (active)

Structure (SMILES): COc1ccc(Nc2ncc(F)c(N3CCOCC3)n2)cc1
AC50 [5]: > 52 µM (inactive) | CC50 [6]: > 40 µM (active) | AC50 [7]: > 52 µM (inactive) | AC50 [8]: 10.2 µM (active) | AC50 [9]: 18 µM (active)

Structure (SMILES): COc1ccc(-n2ncc3c(NCC(C)C)ncnc32)cc1
EC50 (HT-1080): > 50 µM (not active) | EC50 [10]: 1.17 µM (active)

Structure (SMILES): Cc1ccc(Cn2ncc3c(N4CCN(Cc5ccc(Cl)cc5)CC4)ncnc32)cc1
AC50 [11]: 3.86 µM (active) | AC50 [12]: 52 µM (active) | AC50 [13]: 0.606 µM (active) | IC50 [14]: 10.6 µM (inactive)

Structure (SMILES): CCOc1ccc2nc(O)c(CN(Cc3nnnn3Cc3ccco3)C3CCCCC3)cc2c1
CC50 [6]: > 40 µM (active) | IC50 (H9c2): 25.5 µM (active)

More lines, now with the values ahead:

IC50 (Protein Tat): > 100 µM (active)
Structure (SMILES): Cc1cc(C(=O)CSc2nnc(-c3ccccc3)n2Cc2ccc3c(c2)OCO3)c(C)n1C

EC50 [4]: 0.845 µM (active)
Structure (SMILES): CN(C)c1nc(N)nc(-c2nc3ccccc3s2)n1

IC50 (Bcl-2-related protein A1 [1]): > 100 µM (not active) | IC50 [2]: > 100 µM (not active) | IC50 (Bcl-2-related protein A1 [3]): > 100 µM (not active)
Structure (SMILES): Cc1cc(-c2ccccc2)nc(S(C)(=O)=O)n1

— ChEMBL document CHEMBL1201862, “PubChem BioAssay data set” (2004)
